Source: US5326788A, “Biological fluid purification system” (priority 1992, dated 1994)
Where “and” joins values, the source holds several entries; their conditions need not be identical. Identical values can stand only once.

Columns and labels:
[1] = Toxicity of hypericin administered to mice; assay type: in vivo
Procedure: In general, up to 100 mg and preferably between 1 mg and about 10 mg of the antiviral compounds may be employed to completely eliminate the infectivity properties of human retroviruses such as HIV in one unit of whole blood. Intravenous transfusion or administration of blood containing this level of hypericin for example should pose no serious toxicity or tolerance threat to human recipients of such transfused blood. […] This correlates with a dose of approximately 25 mg i.v. in man, or twenty times the dose that would be received from a transfusion of 1 unit of whole blood containing 2.5 micrograms/ml hypericin. In addition, i.e. administration of 1.2 mg of hypericin in phosphate buffered saline (PBS) containing 10% ethanol to a mouse was not lethal. (Naturally, it is preferred to use the minimum amount of the antiviral compounds that is effective to terminate the infectivity of the target virus in a given biological fluid. The minimum effective amount required for abolishing infectivity of a particular viral species suspected to be present in a biological fluid can be easily determined through the exercise of routine experimentation.)

[2] = Effect of hypericin on hematologic parameters and blood chemistries of mouse blood; parameters: Hematocrit: unit not given here; settings: for BUN / Hb / Hematocrit / WBC / albumin / alk. phos. / calcium / chloride / cholesterol / creatinine / globulins / glucose / iron / phosphorous / retics / sodium / total bilirubin / total protein / triglycerides / uric acid: mouse blood
Procedure: Analogous experiments to assess the effect of hypericin on routine clinical chemistries and hematologic parameters were determined in a commercial laboratory on mouse blood using higher concentrations of hypericin. Eight blood samples drawn in parallel were treated with hypericin ranging in concentration from 2.5 micrograms/ml to 200 micrograms/ml of whole blood.

## Cc1cc(O)c2c(=O)c3c(O)cc(O)c4c5c(O)cc(O)c6c(=O)c7c(O)cc(C)c8c1c2c(c34)c(c78)c65 [hypericin]
[1]; i.v., extrapolated from 100 micrograms per mouse
  corresponding dose in man: approximately 25 mg
[1]; mice, intravenous, 100 micrograms per mouse
  toxic side effects: not exhibited any toxic side effects
[1]; mouse, 1.2 mg in PBS containing 10% ethanol
  lethality: not lethal
[2]; 2.5 μg hypericin
  BUN: 18 mg/dL and 17 mg/dL
  Hb: 12.7 gm, dl
  Hematocrit: 38.3 and 37.8
  WBC: 4.6 /cumm and 4.8 /cumm
  albumin: 3.4 g/dL and 2.6 g/dL
  alk. phos.: 140 IU/l and 121 IU/l
  calcium: 6.7 mg/dL and 5.4 mg/dL
  chloride: 113 meq/l and 102 meq/l
  cholesterol: 149 mg/dL and 143 mg/dL
  creatinine: 0.4 mg/dL
  globulins: 2.6 g/dL and 3.2 g/dL
  glucose: 113 mg/dL and 68 mg/dL
  iron: 219 mog/dl and 169 mog/dl
  phosphorous: 8.1 mg/dL and 7.2 mg/dL
  retics: 1.5% and 2.3%
  sodium: 150 meq/l and 138 meq/l
  total bilirubin: 0.8 mg/dL and 1.2 mg/dL
  total protein: 6.0 g/dL and 5.8 g/dL
  triglycerides: 80 mg/dL and 77 mg/dL
  uric acid: 2.6 mg/dL and 2.8 mg/dL
[2]; 5.0 μg hypericin
  BUN: 18 mg/dL
  Hb: 12.9 gm, dl and 12.4 gm, dl
  Hematocrit: 38.5
  WBC: 4.7 /cumm and 4.5 /cumm
  albumin: 3.5 g/dL
  alk. phos.: 140 IU/l
  calcium: 7.0 mg/dL
  chloride: 113 meq/l
  cholesterol: 156 mg/dL
  creatinine: 0.4 mg/dL
  glucose: 112 mg/dL
  iron: 220 mog/dl
  phosphorous: 8.1 mg/dL
  retics: 2.2% and 2.0%
  sodium: 150 meq/l
  total bilirubin: 0.8 mg/dL
  triglycerides: 85 mg/dL
  uric acid: 2.7 mg/dL
[2]; 10 μg hypericin
  BUN: 18 mg/dL
  Hb: 12.8 gm, dl and 12.3 gm, dl
  Hematocrit: 37.8
  WBC: 4.5 /cumm
  albumin: 3.5 g/dL
  alk. phos.: 138 IU/l and 140 IU/l
  calcium: 6.7 mg/dL
  chloride: 112 meq/l
  cholesterol: 155 mg/dL
  creatinine: 0.3 mg/dL
  globulins: 3.0 g/dL
  glucose: 113 mg/dL
  iron: 218 mog/dl and 220 mog/dl
  phosphorous: 8.2 mg/dL and 8.1 mg/dL
  retics: 1.7% and 0.5%
  sodium: 148 meq/l
  total bilirubin: 0.8 mg/dL and 0.9 mg/dL
  total protein: 6.5 g/dL
  triglycerides: 67 mg/dL and 64 mg/dL
  uric acid: 2.9 mg/dL and 3.0 mg/dL
[2]; 25 μg hypericin
  BUN: 18 mg/dL
  Hb: 12.8 gm, dl
  Hematocrit: 37.7 and 37.9
  WBC: 4.7 /cumm
  albumin: 3.7 g/dL and 3.6 g/dL
  alk. phos.: 136 IU/l and 134 IU/l
  calcium: 6.7 mg/dL and 6.3 mg/dL
  chloride: 111 meq/l and 110 meq/l
  cholesterol: 166 mg/dL and 162 mg/dL
  creatinine: 0.3 mg/dL
  globulins: 3.1 g/dL and 3.3 g/dL
  glucose: 111 mg/dL and 110 mg/dL
  iron: 218 mog/dl and 219 mog/dl
  phosphorous: 8.2 mg/dL and 8.1 mg/dL
  retics: 0.8% and 0.3%
  sodium: 146 meq/l and 144 meq/l
  total bilirubin: 0.9 mg/dL
  total protein: 6.8 g/dL and 6.9 g/dL
  triglycerides: 80 mg/dL and 84 mg/dL
  uric acid: 3.9 mg/dL and 3.8 mg/dL
[2]; 50 μg hypericin
  BUN: 18 mg/dL
  Hb: 12.8 gm, dl
  Hematocrit: 38.1 and 38.0
  WBC: 4.8 /cumm
  albumin: 3.5 g/dL
  alk. phos.: 141 IU/l
  calcium: 6.6 mg/dL and 6.8 mg/dL
  chloride: 113 meq/l
  cholesterol: 152 mg/dL and 150 mg/dL
  creatinine: 0.4 mg/dL
  globulins: 3.0 g/dL
  glucose: 113 mg/dL and 114 mg/dL
  iron: 220 mog/dl and 221 mog/dl
  phosphorous: 8.3 mg/dL and 8.2 mg/dL
  retics: 1.4% and 2.5%
  sodium: 148 meq/l
  total bilirubin: 0.8 mg/dL and 0.9 mg/dL
  total protein: 6.5 g/dL
  triglycerides: 61 mg/dL and 62 mg/dL
  uric acid: 3.0 mg/dL and 2.8 mg/dL
[2]; 100 μg hypericin
  BUN: 18 mg/dL and 17 mg/dL
  Hb: 12.8 gm, dl and 13.2 gm, dl
  Hematocrit: 37.8 and 38.4
  WBC: 4.9 /cumm and 5.0 /cumm
  albumin: 3.5 g/dL and 3.4 g/dL
  alk. phos.: 140 IU/l and 138 IU/l
  calcium: 6.6 mg/dL
  cholesterol: 153 mg/dL and 151 mg/dL
  creatinine: 0.4 mg/dL
  globulins: 3.0 g/dL and 2.7 g/dL
  iron: 220 mog/dl and 216 mog/dl
  phosphorous: 8.2 mg/dL and 8.0 mg/dL
  retics: 0.8% and 0.7%
  sodium: 149 meq/l and 146 meq/l
  total bilirubin: 1.0 mg/dL
  total protein: 6.5 g/dL and 6.1 g/dL
  triglycerides: 92 mg/dL and 87 mg/dL
  uric acid: 3.2 mg/dL and 3.1 mg/dL
[2]; 200 μg hypericin
  BUN: 18 mg/dL
  Hb: 12.6 gm, dl and 12.7 gm, dl
  Hematocrit: 37.5 and 34.6
  WBC: 4.4 /cumm and 4.6 /cumm
  albumin: 3.5 g/dL
  alk. phos.: 139 IU/l and 140 IU/l
  calcium: 6.6 mg/dL
  chloride: 110 meq/l and 111 meq/l
  cholesterol: 155 mg/dL and 157 mg/dL
  creatinine: 0.4 mg/dL
  globulins: 3.3 g/dL and 2.9 g/dL
  glucose: 122 mg/dL and 111 mg/dL
  iron: 211 mog/dl and 215 mog/dl
  phosphorous: 7.9 mg/dL and 8.0 mg/dL
  retics: 2.8% and 0.6%
  sodium: 145 meq/l and 147 meq/l
  total bilirubin: 1.1 mg/dL
  total protein: 6.8 g/dL and 6.4 g/dL
  triglycerides: 92 mg/dL and 89 mg/dL
  uric acid: 3.8 mg/dL and 3.6 mg/dL
[2]; up to 200 micrograms/ml
  effect on clinical chemistries and hematological parameters (summary): did not significantly affect
